# Data published in patent US20040043403A1, “Process for determining the biological activity of epidermal growth factor receptor tyrosine kinase inhibitors” (priority 2000, published 2004).
# What was measured:
# [1] = system: NCI-H596; experiment: Real time RT-PCR gene expression in NCI-H596 cells; type: cell-based, human; conditions: NCI-H596, 3 μM, 24 h; relative to DMSO-treated NCI-H520 calibrator
# Procedure: 20 million tissue culture cells (about 80% confluent) or 200 million WBCs are incubated for 2 or 24 h in culture medium containing 3 μM of an EGFR tyrosine kinase inhibitor or 0.03% DMSO. Total RNA from cell pellet is isolated using the RNeasy kit (Qiagen). mRNA is isolated using the oligotex mRNA purification kit (Qiagen). The quality of the obtained mRNA is tested by real time RT-PCR using beta-Actin primers (PE Applied Biosystems) with an amplicon size of 300 base pairs (bp). The total RNA is used as a reference to calculate the amount of mRNA-enrichment in the oligotex purified samples. The primers and probes are designed from mRNA sequences within the coding region or in the 3′ untranslated region (Table 2). For real time RT-PCR, RNA concentrations between 1 and 50 ng/reaction are used to obtain signals between 15-35 cycles. For each RNA preparation RT-PCR reactions are performed with and without reverse transcriptase to check for genomic DNA contamination. In all RNA samples tested, genomic DNA contamination is less than 1%. To normalize for variability in the initial concentration and quality of the total RNA, Glyceraldehyde-3-phosphate dehydrogenase (GAPDH) is used as an endogenous reference in all quantification experiments. For RT-PCR a one step, two-enzyme system is chosen. The TaqMan PCR Core Reagent Kit (PE #N808-0228) plus the reverse transcriptase MuLV (PE Biosystems # N808-0018) and RNase inhibitor (Roche Diagnostics # 799 025) are mixed as described in the manufacturers protocol. Triplicate measurements are done for target and for reference reactions. […] RT-PCR reactions are done with RNA concentrations of 2.5, 5, 10, 20, 40 and 80 ng per reaction. […] The ΔCT value is determined by subtracting the average reference CT values from the average target CT values of the three measurements. Relative quantification is performed in triplicates, reference and target, using the RT-PCR protocol described above. […] Expression levels for the three genes, calculated relative to NCI-H520, show big differences between the various cell types (Table 5). […]
# [2] = system: A431 cells; experiment: Western blot of clusterin induction in A431 cells; type: cell-based, human
# Procedure: (§1) An EGFR tyrosine kinase inhibitor is dissolved in DMSO to obtain a 10 mM stock solution. The stock solution is further diluted in culture medium to final concentrations of 10 nM to 3 μM. 3.5 million cells/100 mm dish/12 ml culture medium are incubated for 24 h in 5% CO2 at 37° C. The medium is replaced with medium containing the EGFR tyrosine kinase inhibitor or DMSO. Cells are incubated for 4 to 32 h. The frozen pellets are lysed in 500 μl of lysis buffer (50 mM Tris-HCl pH 7.5, 1% Sodium Dodecyl Sulfate (SDS)). To shear genomic DNA, the cell lysates are processed in a FastPrep instrument for 20 sec at a speed rating of 4, using the green […] tubes (Bio101#6040-6010). Protein concentrations are determined according to the PIERCE-method (BCA Protein Assay, Reagent A and B). Protein concentration of lysates is adjusted to 1 μg/μl with lysis buffer. 4 parts of cell lysates are mixed with 1 part of 5 fold concentrated Laemmli buffer, the lysates are stored at -20° C. 40 μl of cell lysate is heated for 3 min to 95° C. and directly loaded on to 10% or 15% SDS-PAGE gels. The gels are run at 130 V for 90 min under standard conditions. The separated proteins are semi-dry blotted on to a PVDF membrane (Immobilon-P, Millipore #IPVH 202 00) for 70 min with 45 mA per blot. Immediately after the transfer the blots are incubated in Blotto A (5% skim milk powder in Tris Buffered Saline (TBS)/0.05% Tween-20) for 1 h at room temperature on a rotating platform. The blots are then washed three times in TBS/0.05% Tween-20. The blots are incubated for 1 h with 0.2 μg/ml of e.g. goat anti-human clusterin (C-18) antibody (Santa Cruz, sc-6419) in Blotto A for 1.5 h at room temperature on a rotating platform. The control blots are incubated with 0.2 μg/ml of mouse anti-human-actin (C-2) antibody (Santa Cruz, sc-8432). The blots are washed three times with TBS/0.05% Tween-20. […]
# [3] = target: EGFR tyrosine kinase (Homo sapiens, UniProt P00533); conditions: disclosed in WO 97/02266; cited from earlier work
# [4] = system: MDA-MB468; experiment: Western blot of clusterin induction in MDA-MB468 cells; type: cell-based, human; conditions: MDA-MB468 cells (high levels of EGFR), 300 nM, 24 h, vs 0.03% DMSO
# Procedure: as §1, with “blot.” for “blot. Immediately after the transfer the blots are incubated in Blotto A (5% skim milk powder in Tris Buffered Saline (TBS)/0.05% Tween-20) for 1 h at room temperature on a rotating platform. The blots are then washed three times in TBS/0.05% Tween-20. The blots are incubated for 1 h with 0.2 μg/ml of e.g. goat anti-human clusterin (C-18) antibody (Santa Cruz, sc-6419) in Blotto A for 1.5 h at room temperature on a rotating platform. The control blots are incubated with 0.2 μg/ml of mouse anti-human-actin (C-2) antibody (Santa Cruz, sc-8432). The blots are washed three times with TBS/0.05% Tween-20.”
# EGFR tyrosine kinase, sequence (P00533 669-1210 limits assumed): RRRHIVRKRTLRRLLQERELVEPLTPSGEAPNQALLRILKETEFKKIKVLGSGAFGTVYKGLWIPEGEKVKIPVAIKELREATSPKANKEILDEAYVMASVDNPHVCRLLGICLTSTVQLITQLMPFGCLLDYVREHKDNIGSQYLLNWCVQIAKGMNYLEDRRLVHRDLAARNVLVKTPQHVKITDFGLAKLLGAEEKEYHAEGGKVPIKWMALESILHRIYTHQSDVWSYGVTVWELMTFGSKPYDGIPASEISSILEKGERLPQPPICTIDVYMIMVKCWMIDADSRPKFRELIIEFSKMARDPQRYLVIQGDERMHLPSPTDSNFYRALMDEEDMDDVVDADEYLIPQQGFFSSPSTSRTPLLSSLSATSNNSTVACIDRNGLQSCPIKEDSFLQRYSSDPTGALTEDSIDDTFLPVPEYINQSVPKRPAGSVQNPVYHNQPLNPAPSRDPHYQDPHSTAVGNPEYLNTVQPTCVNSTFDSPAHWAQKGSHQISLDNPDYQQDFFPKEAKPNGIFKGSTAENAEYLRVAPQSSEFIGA
smiles,measurement,setting,value
"C[C@@H](Nc1ncnc2[nH]c(-c3ccc(O)cc3)cc12)c1ccccc1 [COMPOUND A, (R)-6-(4-hydroxy-phenyl)-4-[(1-phenyl-ethyl)-amino]-7H-pyrrolo[2,3-d]pyrimidine]",Relative Clusterin expression,[1],44.12 n-fold
same,Relative TRAIL expression,[1],81.76 n-fold
same,Relative VAC-beta expression,[1],102.30 n-fold
same,"Clusterin induction, Western blot (FIG. 4)","[2]; A431 cells (high levels of EGFR), 300 nM, 24 h, vs 0.03% DMSO",strong clusterin expression signals
same,Concentration at which the 43 kDa clusterin signals reach a maximum (FIG. 2),"[2]; A431 cells, 10 nM to 1 μM, 24 h, signals increase with concentration",300 nM
same,Time course of clusterin protein induction (FIG. 3),"[2]; A431 cells, 300 nM, 4, 8, 16, 24 and 32 h",continuous increase of clusterin signal from 16 h to 32 h
same,Inhibition of the EGFR tyrosine kinase,[3],potent and selective inhibitor
same,"Clusterin induction, Western blot (FIG. 4)",[4],strong clusterin expression signals
